# Laboratory results published in patent publication US11214561B2, “Histone methyltransferase EZH2 inhibitor, preparation method and pharmaceutical use thereof” (ANCUREALL PHARMACEUTICAL (SHANGHAI) CO., LTD., priority 2017, dated 2022).
# How the values were obtained:
# Karpas-422 (EZH2 Y641N) = assay: In vitro 50% growth inhibition (GI50), MTT/CCK8, Karpas-422 cells; type: cell-based; conditions: Homo sapiens, KARPAS-422, 144 h; Drug treatment for 6 days
# [1] = test system: Pfeiffer cells (EZH2 A677G); assay: Compound washout effect on in vitro growth of Pfeiffer cells (irreversible inhibition); type: cell-based, Human; conditions: for Pfeiffer cells growth rate (%) (10 days), Continuous: continuous treatment; for Pfeiffer cells growth rate (%) (10 days), Washout: washout after 12 h
# Experimental: The test of the compound washout effect on the in vitro growth inhibition of human diffuse large cell B lymphoma lymphocyte Pfeiffer (ATCC) expressing EZH2 A677G mutant protein was performed as follows.
# Log-phase Pfeiffer cells were centrifuged directly (1700 rpm, 3 min), and the supernatant was discarded and the cells were counted. Cells were prepared with the complete medium (2×10^4 cells per ml), inoculated to 96-well plates (Corning), 200 μl per well, and incubated overnight at 37° C., 5% CO2. […] The cells were further cultured for 12 h. The cells in half of the test wells were then collected by centrifugation (parallel to 2 wells), and washed three times with serum-free cell culture medium, and then resuspended in a same volume of complete cell culture medium (200 μl). It was further cultured together with the untreated cells for 10 days at 37° C., 5% CO2.
smiles,measurement,setting,value
"C=CC(=O)N1CCC(N(CC)c2cc(-c3ccc(CN4CCCCC4)cc3)cc(C(=O)NCc3c(C)cc(C)[nH]c3=O)c2C)CC1 [Example 34, N-(4,6-dimethyl-2-oxo-1,2-dihydro-pyridin-3-ylmethyl)-5-[(1-acryloyl-piperidin-4-yl)-ethyl-amino]-4-methyl-4′-(piperidin-1-ylmethyl)-[1,1′-biphenyl]-3-carboxamide]",GI50,Karpas-422 (EZH2 Y641N),10 to 100 nM
same,"Pfeiffer cells growth rate (%) (10 days), Continuous",[1]; Drug concentration 25 nM,0%
same,"Pfeiffer cells growth rate (%) (10 days), Washout",[1]; Drug concentration 25 nM,0%
same,"Pfeiffer cells growth rate (%) (10 days), Continuous",[1]; Drug concentration 50 nM,0%
same,"Pfeiffer cells growth rate (%) (10 days), Washout",[1]; Drug concentration 50 nM,0%
same,"Pfeiffer cells growth rate (%) (10 days), Continuous",[1]; Drug concentration 100 nM,0%
same,"Pfeiffer cells growth rate (%) (10 days), Washout",[1]; Drug concentration 100 nM,0%
same,"reversibility of inhibitory effect on cell growth in vitro, in words",[1]; washout treatment of Pfeiffer cells,potential irreversible inhibitory effect
